Data taken from the NIST ThermoML archive (doi:10.1016/j.jct.2007.06.015).
± gives the expanded uncertainty stated by the source.

Legend:
[1] = Crystal; DTA
[2] = Molar enthalpy of transition or fusion; settings: Crystal; DSC
[3] = molar enthalpy of vaporization or sublimation; settings: 298.15 K, Static calorimetry

Normal melting temperature [1] [°C] | Molar enthalpy of transition or fusion [2] [kcal/mol] | molar enthalpy ([3]; Crystal) [kcal/mol] | molar enthalpy ([3]; Liquid) [kcal/mol] | SMILES
69.0 ± 0.5 | 6.45 ± 0.167 | 25.1 ± 0.382 |  | N[C@H]1CC[C@H](N)CC1 [trans-1,4-cyclohexanediamine]
 |  |  | 14.9 ± 0.454 | N[C@H]1CC[C@@H](N)CC1 [cis-1,4-cyclohexanediamine]
